Experiment [1] concerns the target T1, catalytic domain of human Bub1 (amino acids 704-1085) (Homo sapiens, UniProt O43683).
T1 construct: catalytic domain of human Bub1 (amino acids 704-1085); His6 (N); made in house; host or cells: insect cells (Hi5)
Description: Bub1 kinase assay (TR-FRET). The note with it: 10 μM ATP, avg, read-out: Bub1 avg (IC50 [mol/l]). It is filed as biochemical. An outline of the steps:
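Readout is the 665/620 nm TR-FRET ratio from anti-phosphoserine antibody, Eu-labelled anti-mouse IgG and streptavidin-XL665, scaled between no-enzyme and uninhibited controls. Reaction: 1 μM biotinylated peptide, 10 μM ATP, 60 min, 22 °C, after 15 min compound preincubation with His6-Bub1 (704-1085, insect-expressed, ~200 ng/ml).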

The subject of the next experiment is HeLa. Description: Proliferation assay (crystal violet), HeLa. The note with it: Homo sapiens, HeLa, 96 h, HeLa cells; 4 days incubation; crystal violet staining; read-out: IC50 inhibition of proliferation, HeLa. It is filed as cell-based. An outline of the steps:
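Seed 1000–5000 cells/well, 10% FCS; 24 h later replace medium and add compound (0.001–10 μM, 0.5% DMSO); incubate 4 d; glutaraldehyde fix, 0.1% crystal violet pH 3.0, elute with 10% acetic acid; A595; 4-parameter IC50.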

Drawing on patent US20170334899A1, “AMINO-SUBSTITUTED ISOTHIAZOLES” (Bayer Pharma Aktiengesellschaft, priority 2014, published 2017), this text covers IC50 for 26 compounds.

A value given as a limit tells only on which side of the number the result lay.

T1 sequence (O43683 704-1085): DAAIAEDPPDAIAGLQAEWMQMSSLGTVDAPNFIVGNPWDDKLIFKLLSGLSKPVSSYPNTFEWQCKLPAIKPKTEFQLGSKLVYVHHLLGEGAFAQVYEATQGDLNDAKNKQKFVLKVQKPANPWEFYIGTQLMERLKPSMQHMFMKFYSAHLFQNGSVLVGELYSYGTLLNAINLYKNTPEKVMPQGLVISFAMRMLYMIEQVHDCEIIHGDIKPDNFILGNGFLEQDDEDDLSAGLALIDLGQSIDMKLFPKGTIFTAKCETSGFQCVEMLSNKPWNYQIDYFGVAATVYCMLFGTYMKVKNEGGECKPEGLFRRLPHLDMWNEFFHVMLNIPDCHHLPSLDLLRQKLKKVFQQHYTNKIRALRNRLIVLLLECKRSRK

For `COCCOc1ccc(NC(=O)c2c(C)nsc2Nc2nc3c(C(F)(F)F)cccc3s2)cc1F` [Example 1, N-[3-Fluoro-4-(2-methoxyethoxy)phenyl]-3-methyl-5-{[4-(trifluoromethyl)-1,3-benzothiazol-2-yl]amino}-1,2-thiazole-4-carboxamide], the IC50 is no less than 20 µM in experiment [1] and 0.57 µM in the experiment with HeLa.

In the case of `Cc1nsc(Nc2nc3c(C(F)(F)F)cccc3s2)c1C(=O)Nc1ccc(OCCO)nc1` [Example 2, N-[6-(2-Hydroxyethoxy)pyridin-3-yl]-3-methyl-5-{[4-(trifluoromethyl)-1,3-benzo-thiazol-2-yl]amino}-1,2-thiazole-4-carboxamide], the IC50 was no less than 20 µM in experiment [1] and 4.9 µM in the experiment on HeLa.

`COCCOc1ccc(NC(=O)c2c(C)nsc2Nc2nc3c(C(F)(F)F)cccc3s2)cn1` [Example 3, N-[6-(2-Methoxyethoxy)pyridin-3-yl]-3-methyl-5-{[4-(trifluoromethyl)-1,3-benzo-thiazol-2-yl]amino}-1,2-thiazole-4-carboxamide]: the IC50 in experiment [1] is no less than 20 µM; with HeLa, 0.91 µM.

With `Cc1nsc(Nc2nc3c(C(F)(F)F)cccc3s2)c1C(=O)Nc1ccc(OCCO)c(F)c1` [Example 4, N-[3-Fluoro-4-(2-hydroxyethoxy)phenyl]-3-methyl-5-{[4-(trifluoromethyl)-1,3-benzothiazol-2-yl]amino}-1,2-thiazole-4-carboxamide], the IC50 in experiment [1] is no less than 20 µM; with HeLa, 1.8 µM.

Regarding `Cc1nsc(Nc2cnc(C(F)(F)F)cn2)c1C(=O)Nc1ccc(OC2CCN(C(=O)OC(C)(C)C)CC2)nc1` [Example 5, tert-Butyl 4-[(5-{[(3-methyl-5-{[5-(trifluoromethyl)pyrazin-2-yl]amino}-1,2-thiazol-4-yl)carbonyl]amino}pyridin-2-yl)oxy]piperidine-1-carboxylate], the IC50 in experiment [1] is no less than 20 µM; in the experiment with HeLa, 0.56 µM.

Take `Cc1nsc(Nc2cc(C#N)ccn2)c1C(=O)Nc1ccc(OC2CCCNC2)nc1` (stereo not shown) [Example 35, 5-[(4-Cyanopyridin-2-yl)amino]-3-methyl-N-[6-(piperidin-3-yloxy)pyridin-3-yl]-1,2-thiazole-4-carboxamide]: the IC50 in experiment [1] is no less than 20 µM; in the experiment on HeLa it was 10 µM.

Take `Cc1nsc(Nc2ccc(C#N)cn2)c1C(=O)Nc1ccc(OC2CCCN(C(=O)OC(C)(C)C)C2)nc1` (stereo not shown) [Example 36, tert-Butyl 3-({5-[({5-[(5-cyanopyridin-2-yl)amino]-3-methyl-1,2-thiazol-4-yl}-carbonyl)amino]pyridin-2-yl}oxy)piperidine-1-carboxylate]: the IC50 in experiment [1] was no less than 20 µM; in the experiment on HeLa, 1.1 µM.

As for `Cc1nsc(Nc2ccc(C#N)cn2)c1C(=O)Nc1ccc(OC2CCCNC2)nc1` (stereo not shown) [Example 37, 5-[(5-Cyanopyridin-2-yl)amino]-3-methyl-N-[6-(piperidin-3-yloxy)pyridin-3-yl]-1,2-thiazole-4-carboxamide], the IC50 in experiment [1] was no less than 20 µM; in the experiment with HeLa it was 10 µM.

Turning to `Cc1nsc(Nc2ccc(C#N)cn2)c1C(=O)Nc1ccc(OC2CCCN(CCF)C2)nc1` (stereo not shown) [Example 38, 5-[(5-Cyanopyridin-2-yl)amino]-N-(6-{[1-(2-fluoroethyl)piperidin-3-yl]oxy}pyridin-3-yl)-3-methyl-1,2-thiazole-4-carboxamide], the IC50 in experiment [1] was no less than 20 µM; with HeLa, 8.1 µM.

As for `Cc1nsc(Nc2ccc(C#N)cn2)c1C(=O)Nc1ccc(OC2CCCN(CC(F)F)C2)nc1` (stereo not shown) [Example 39, 5-[(5-Cyanopyridin-2-yl)amino]-N-(6-{[1-(2,2-difluoroethyl)piperidin-3-yl]oxy}-pyridin-3-yl)-3-methyl-1,2-thiazole-4-carboxamide], the IC50 in experiment [1] is no less than 20 µM; in the experiment with HeLa it was 1.1 µM.

As for `Cc1nsc(Nc2ccc(C#N)cn2)c1C(=O)Nc1ccc(OC2CCCN(CC(F)(F)F)C2)nc1` (stereo not shown) [Example 40, 5-[(5-Cyanopyridin-2-yl)amino]-3-methyl-N-(6-{[1-(2,2,2-trifluoroethyl)piperidin-3-yl]oxy}pyridin-3-yl)-1,2-thiazole-4-carboxamide], the figures for the IC50 (in experiment [1]; in the experiment on HeLa) were no less than 20 µM and 0.54 µM, respectively.

For `Cc1nsc(Nc2cnccn2)c1C(=O)Nc1ccc(OC2CCCN(C(=O)OC(C)(C)C)C2)nc1` (stereo not shown) [Example 41, tert-Butyl 3-{[5-({[3-methyl-5-(pyrazin-2-ylamino)-1,2-thiazol-4-yl]carbonyl}amino)-pyridin-2-yl]oxy}piperidine-1-carboxylate], the IC50 was no less than 20 µM in experiment [1] and 10 µM with HeLa.

Consider `Cc1nsc(Nc2cnc3ccccc3n2)c1C(=O)Nc1ccc(OCCCNC(=O)OC(C)(C)C)nc1` [Example 42, tert-Butyl (3-{[5-({[3-methyl-5-(quinoxalin-2-ylamino)-1,2-thiazol-4-yl]carbonyl}-amino)pyridin-2-yl]oxy}propyl)carbamate], for which the IC50 in experiment [1] was no less than 20 µM; in the experiment on HeLa, 2.3 µM.

As to `Cc1nsc(Nc2cc(C#N)ccn2)c1C(=O)Nc1ccc(OCCCNC(=O)OC(C)(C)C)nc1` [Example 43, tert-Butyl [3-({5-[({5-[(4-cyanopyridin-2-yl)amino]-3-methyl-1,2-thiazol-4-yl}-carbonyl)amino]pyridin-2-yl}oxy)propyl]carbamate], the results for the IC50 (in experiment [1]; in the experiment with HeLa) were no less than 20 µM and 10 µM, respectively.

For the compound `Cc1nsc(Nc2cc(C#N)ccn2)c1C(=O)Nc1ccc(OCCCN)nc1` [Example 44, N-[6-(3-Aminopropoxy)pyridin-3-yl]-5-[(4-cyanopyridin-2-yl)amino]-3-methyl-1,2-thiazole-4-carboxamide], the IC50 in experiment [1] is no less than 20 µM; with HeLa, 10 µM.

On to `Cc1nsc(Nc2cc(C#N)ccn2)c1C(=O)Nc1ccc(OCCCNCC(F)F)nc1` [Example 45, 5-[(4-Cyanopyridin-2-yl)amino]-N-(6-{3-[(2,2-difluoroethyl)amino]propoxy}pyridin-3-yl)-3-methyl-1,2-thiazole-4-carboxamide], for which the IC50 was no less than 20 µM in experiment [1] and 10 µM in the experiment on HeLa.

As to `Cc1nsc(Nc2ccc(C#N)cn2)c1C(=O)Nc1ccc(OCCCNC(=O)OC(C)(C)C)nc1` [Example 46, tert-Butyl [3-({5-[({5-[(5-cyanopyridin-2-yl)amino]-3-methyl-1,2-thiazol-4-yl}-carbonyl)amino]pyridin-2-yl}oxy)propyl]carbamate], the results for the IC50 (in experiment [1]; in the experiment on HeLa) were no less than 20 µM and 10 µM, respectively.

Take `Cc1nsc(Nc2cnccn2)c1C(=O)Nc1ccc(OCCCNC(=O)OC(C)(C)C)nc1` [Example 47, tert-Butyl (3-{[5-({[3-methyl-5-(pyrazin-2-ylamino)-1,2-thiazol-4-yl]carbonyl}-amino)pyridin-2-yl]oxy}propyl)carbamate]: the IC50 in experiment [1] was no less than 20 µM; with HeLa it was 10 µM.

Consider `Cc1nsc(Nc2cnccn2)c1C(=O)Nc1ccc(OCCCN)nc1` [Example 48, N-[6-(3-Aminopropoxy)pyridin-3-yl]-3-methyl-5-(pyrazin-2-ylamino)-1,2-thiazole-4-carboxamide], for which the results for the IC50 (in experiment [1]; in the experiment with HeLa) were no less than 20 µM and 10 µM, respectively.

In the case of `Cc1nsc(Nc2cnc3ccccc3n2)c1C(=O)Nc1cccc(C(=O)OC(C)(C)C)c1` [Example 49, tert-Butyl 3-({[3-methyl-5-(quinoxalin-2-ylamino)-1,2-thiazol-4-yl]carbonyl}amino)-benzoate], the values for the IC50 (in experiment [1]; with HeLa) were no less than 20 µM and 0.89 µM, respectively.

`COC(=O)c1cccc(NC(=O)c2c(C)nsc2Nc2cnc3ccccc3n2)c1` [Example 50, Methyl 3-({[3-methyl-5-(quinoxalin-2-ylamino)-1,2-thiazol-4-yl]carbonyl}amino)-benzoate]: the results for the IC50 (in experiment [1]; in the experiment with HeLa) were no less than 20 µM and 1.9 µM, respectively.

In the case of `Cc1nsc(Nc2cnc3ccccc3n2)c1C(=O)Nc1cccc(C(=O)O)c1` [Example 51, 3-({[3-Methyl-5-(quinoxalin-2-ylamino)-1,2-thiazol-4-yl]carbonyl}amino)benzoic acid], the IC50 was 1.9 µM in experiment [1] and 10 µM with HeLa.

As for `Cc1nsc(Nc2cnc3ccccc3n2)c1C(=O)Nc1cccc(C(=O)N2CCOCC2)c1` [Example 52, 3-Methyl-N-[3-(morpholin-4-ylcarbonyl)phenyl]-5-(quinoxalin-2-ylamino)-1,2-thiazole-4-carboxamide], the IC50 in experiment [1] turned out to be 9 µM; in the experiment with HeLa, 10 µM.

In the case of `Cc1nsc(Nc2cnc3ccccc3n2)c1C(=O)Nc1cccc(C(=O)NC(C)(C)C)c1` [Example 53, N-[3-(tert-Butylcarbamoyl)-phenyl]-3-methyl-5-(quinoxalin-2-ylamino)-1,2-thiazole-4-carboxamide], the IC50 in experiment [1] stood at 9 µM; in the experiment with HeLa, 2.7 µM.

For the compound `Cc1nsc(Nc2cnc3ccccc3n2)c1C(=O)Nc1cccc(C(=O)NCC(=O)OC(C)(C)C)c1` [Example 54, tert-Butyl N-[3-({[3-methyl-5-(quinoxalin-2-ylamino)-1,2-thiazol-4-yl]carbonyl}amino)-benzoyl]glycinate], the values for the IC50 (in experiment [1]; with HeLa) were 16 µM and 10 µM, respectively.

For the compound `Cc1nsc(Nc2cnc3ccccc3n2)c1C(=O)Nc1cccc(C(=O)N2CCN(C(=O)OC(C)(C)C)CC2)c1` [Example 55, tert-Butyl 4-[3-({[3-methyl-5-(quinoxalin-2-ylamino)-1,2-thiazol-4-yl]carbonyl}amino)-benzoyl]piperazine-1-carboxylate], the IC50 in experiment [1] was no less than 20 µM; in the experiment with HeLa it was 10 µM.
